For eight molecules, IC50, inhibition and IC25 results are on record in US4816477A, “Antihypercholesterolemic β-lactones” (Merck & Co., Inc., priority 1987, dated 1989).

This test concerns the target T1, HMG-CoA synthase (Rattus norvegicus, UniProt P17425).
T1 construct: The livers from male Charles River CD rats (225-350 g) were homogenized in 0.25 M sucrose; from tissue; host or cells: rat liver (male Charles River CD rats), 100,000×g supernatant, ammonium sulfate precipitate, DEAE-52 fraction
T1 sequence (P17425 1-520): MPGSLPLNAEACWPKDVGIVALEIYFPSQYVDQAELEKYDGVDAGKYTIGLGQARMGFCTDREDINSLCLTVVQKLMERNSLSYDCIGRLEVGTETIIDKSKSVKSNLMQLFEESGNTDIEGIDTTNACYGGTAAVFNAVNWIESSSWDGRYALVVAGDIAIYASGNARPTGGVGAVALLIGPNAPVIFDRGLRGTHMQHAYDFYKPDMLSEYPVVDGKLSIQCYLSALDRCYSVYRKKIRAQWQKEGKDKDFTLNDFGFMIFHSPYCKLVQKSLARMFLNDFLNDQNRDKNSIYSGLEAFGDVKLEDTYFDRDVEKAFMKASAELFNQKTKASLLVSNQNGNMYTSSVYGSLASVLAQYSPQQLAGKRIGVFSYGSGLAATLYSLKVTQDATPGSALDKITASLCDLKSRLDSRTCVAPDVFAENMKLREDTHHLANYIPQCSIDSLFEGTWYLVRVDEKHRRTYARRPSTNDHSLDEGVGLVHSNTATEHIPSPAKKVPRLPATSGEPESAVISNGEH
Nature of the test: HMG-CoA Synthase Inhibition Assay. The class given is biochemical. The settings on record: for IC50: in vitro, enzyme from rat liver. As for the experimental part: The intrinsic HMG-CoA synthase inhibition activity of the compounds of this invention is measured by the standard in vitro protocol described below:
The livers from male Charles River CD rats (225-350 g) were homogenized in 0.25 M sucrose which was adjusted with phenylmethylsulfonylfluoride (PMSF) and N-p-tosyl-1-lysine chloromethyl ketone (TLCK) so that the final concentration of each was […], respectively. The homogenate was centrifuged at 15,000×g for 20 minutes, the supernatant filtered through a fine nylon screen to remove most of the fat layer and recentrifuged at 100,000×g for 1 hour. This supernatant was removed and 1 M potassium phosphate, dithiothreitol (DTT) and ethylene glycol-bis(β-aminoethyl ether)-N,N,N',N'-tetraacetic acid (EGTA) added to give a final concentration of 0.1 M (pH 7.2), 0.5 mM and 0.1 mM, respectively. Solid ammonium sulfate was added to 50% saturation to the protein solution, it was centrifuged at 15,000×g and the supernatant discarded. This precipitated protein could be stored at -70° C. for at least one month with very little loss of activity. The ammonium sulfate precipitate was dissolved in an minimal amount of 0.06 M potassium phosphate buffer (pH 7.2) containing 0.5 mM dithiothreitol and 0.1 mM EGTA (referred to as 0.06 M phosphate buffer) and dialyzed overnight against 2 liters of the same buffer to remove the ammonium sulfate and to inactivate HMG-CoA lyase [Clinkenbeard, et al., J. Biol. Chem. 250, 3108-3116(1975)].
The dialyzed extract was added to a column of DEAE-52 (Whatman) which had been equilibrated with 0.06 M phosphate buffer (10 mg of protein to 1 ml bed volume of the resin). The DEAE-cellulose was eluted with 0.06 M phosphate buffer until the optical density at 280 nm was essentially zero. This fraction contained the β-ketoacetyl-CoA thiolase activity. The HMG-CoA synthase was eluted from the column with 0.1 M phosphate buffer (pH 7.2) containing 0.5 mM DTT and 0.1 mM EGTA, and was virtually free of all thiolase activity. The protein was precipitated by the addition of ammonium sulfate to give 50% saturation. This solution was stirred for 10 minutes at 4° C. and the precipitate collected by centrifugation at 15,000 rpm for 10 minutes. The supernatant was discarded and the precipitate dissolved in a minimum of 0.06 M phosphate buffer, pH 7.2 (about 10 ml) and the enzyme stored at -80° C.
HMG-CoA Synthase Inhibition Assay
Enzyme protein (ca. […]) was added to a solution containing 117 mM Tris-HCl (pH 8.0), 11.7 mM MgCl2, 1.17 mM ethylenediaminetetraacetic acid (EDTA), 0.58 mM dithiothreitol, and the indicated concentrations of the test compound (added as a 2 mg/ml solution in dimethylsulfoxide). The incubation took place in a volume of 0.085 ml at 30° in a shaking water bath. After 5 minutes, […] of a solution containing acetoacetyl-CoA and 0.1 μCi of 1-[^14 C]-acetyl-CoA was added to give a final concentrations of 0.1 and 0.4 μM, respectively. The incubation was continued for 10 more minutes and the reaction stopped by the addition of […] of the assay mixture to 0.2 ml of 6N HCl in a glass scintillation vial. The vial was heated for 1 hour at 120° after which time 0.2 ml more of 6N HCl was again added to each vial and the heating continued for another hour. Following this, 1.0 ml of 0.9% saline was added to each vial and finally 10 ml of scintillation liquid. Radioactivity was determined in a Packard Tri-Carb liquid scintillation counter. Percent inhibition is calculated by the formula: [formula] IC50 values were determined by plotting the log of the concentration of the test compound verses the percentage inhibition and fitting a straight line to the resulting data by using the least squares method.

Structures are written as SMILES.

As to `CC(=C\C(=O)O)/C=C(\C)CC(C)CCCCC1OC(=O)C1CF` (stereo not shown) [R^1=OH, R^2=F, 11-(3-fluoromethyl-4-oxo-2-oxetano)-3,5,7,-trimethyl-2,4-undecadienoic acid], half-maximal inhibition (IC50) required 280 nM.
The same measure, in the same setting: for `CC(=C\C(=O)O)/C=C(\C)CC(C)CCCCC1OC(=O)C1C` (stereo not shown) [R^1=OH, R^2=H, 11-(3-methyl-4-oxo-2-oxetano)-3,5,7-trimethyl-2,4-undecadienoic acid] the value was 100 nM; for `COC(=O)/C=C(C)/C=C(\C)CC(C)CCCCC1OC(=O)C1CC#N` (stereo not shown) [R^1=OCH3, R^2=CN, methyl 11-(3-cyanomethyl-4-oxo-2-oxetano)-3,5,7-trimethyl-2,4-undecadienoate], 2900 nM.
Turning to `CC(=C\C(=O)O)/C=C(\C)CC(C)CCCCC1OC(=O)C1CBr` (stereo not shown) [R^1=OH, R^2=Br, 11-(3-bromomethyl-4-oxo-2-oxetano)-3,5,7-trimethyl-2,4-undecadienoic acid], the IC50 amounted to 1400 nM.
In turn, `COC(=O)/C=C(C)/C=C(\C)CC(C)CCCCC1OC(=O)C1CN=[N+]=[N-]` (stereo not shown) [R^1=OCH3, R^2=N3, methyl 11-(3-azidomethyl-4-oxo-2-oxetano)-3,5,7-trimethyl-2,4-undecadienoate] came in with an IC50 of 100 nM. Compared with the last molecule, the IC50 is about 14-fold lower.
`CC(=C\C(=O)O)/C=C(\C)CC(C)CCCCC1OC(=O)C1CCl` (stereo not shown) [R^1=OH, R^2=Cl, 11-(3-Chloromethyl-4-oxo-2-oxetano)-3,5,7-trimethyl-2,4-undecadienoic acid] gave a concentration for half-maximal inhibition (IC50) of 300 nM.
`COC(=O)/C=C(C)/C=C(\C)CC(C)CCCCC1OC(=O)C1CSC(C)=O` (stereo not shown) [R^1=OCH3, R^2=drawing 3, methyl 11-(3-acetylthiomethyl-4-oxo-2-oxetano)-3,5,7-trimethyl-2,4-undecadienoate] displayed an IC50 of 10000 nM. The inhibition at 10 µM (at 10^-5 M, read-out: percent inhibition) is 47.9%.
On to `COC(=O)/C=C(C)/C=C(\C)CC(C)CCCCC1OC(=O)C1C` (stereo not shown) [R^1=OCH3, R^2=H, methyl 11-(3-methyl-4-oxo-2-oxetano)-3,5,7-trimethyl-2,4-undecadienoate], for which, under “at 6 × 10^-6 M, read-out: percent inhibition”, the inhibition at 6 µM turned out to be 22.7%. In addition, the IC25 (concentration giving 22.7 percent inhibition, read-out: IC25 (printed in the IC50 column, in parentheses)) stood at 6000 nM.

For orientation: IC50 means the concentration at which inhibition is half-maximal. A higher IC50 goes with weaker potency in that assay. The inhibition is the relative decrease from the control value, in per cent. For orientation: IC25 means the concentration at which the effect reaches the 25% level.
